Source: patent US20260146274A1, “RECOMBINANT SMALL-MOLECULE COLLAGEN, EXPRESSION SYSTEM THEREOF, AND PREPARATION METHOD THEREOF” (JIANGSU TRAUTEC MEDICAL TECHNOLOGY CO., LTD., priority 2023, published 2026)

B1: 3A5D1NT: 96 amino acids, positions 990 to 1085 of full-length human type III collagen, SEQ ID NO.1 (protein, listed as Homo sapiens)
chain: DGNPGSDGLPGRDGSPGGKGDRGENGSPGAPGAPGHPGPPGPVGPAGKSGDRGESGPAGPAGAPGPAGSRGAPGPQGPRGDKGETGERGAAGIKGH
modifications: Recombinant small-molecule collagen 3A5D1NT

Tested on: NIH/3T3 cell
Experiment: Cell adhesion activity detection (LDH kit, OD492 nm)
Assay type: cell-based
Conditions: for cell adhesion activity (absorbance at OD492 nm) compared with natural human collagen: protein coated at 0.5 mg/mL, NIH/3T3 cells, 60 minutes, FIG. 26
Method: References for Detection Method for Cell Adhesion Activity of Recombinant Small-Molecule Collagen: Juming Yao, Satoshi Yanagisawa, Tetsuo Asakura. Design, Expression and Characterization of Collagen-Like Proteins Based on the Cell Adhesive and Crosslinking Sequences Derived from natural Collagens, J Biochem. 136, 643-649 (2004).
Specific implementation method: A NIH/3T3 cell was cultured under standard conditions (purchased from Cell Bank of the Chinese Academy of Sciences, with catalog number of GNM6. Culture and passage methods followed a cell instruction). […] A natural human collagen (Sigma, Catalog No. C7774) was compared to a bovine serum albumin solution (BSA, purchased from Sangon Biotech (Shanghai) Co., Ltd.) (in ultrapure water or 1M HCl solution). Protein concentration was determined using the UV protein quantification empirical formula: C (mg/mL)=0.144×(A215-A225). Then, the protein was diluted to 0.5 mg/mL with PBS (pH 7.4).
100 μL of various protein solutions and blank PBS solution were added to a 96-well cell culture plate, and set aside 60 minutes at room temperature. Then, […] NIH/3T3 cells with good culture status were added to each well, and incubated at 37° C. and 5% CO2 for 60 minutes. The cells were cleaned in the wells 4 times with PBS. An absorbance value at OD492 nm was detected using a LDH detection kit (Roche, 04744926001). Data were analyzed and subject to significant differential analysis (SPSS 22 software, Duncan's method, P<0.05).
The absorbance value at OD492 nm characterized the cell adhesion activity of a collagen sample: higher adhesion activity indicated more cells adhering to the protein.

[1] = equivalent concentrations (0.5 mg/mL), NIH/3T3, Duncan's method P<0.05

| Molecule | cell adhesion activity compared with larger-molecular-weight recombinant type-XVII collagen [1] | cell adhesion activity (absorbance at OD492 nm) compared with natural human collagen | cell adhesion activity compared with larger-molecular-weight recombinant type-III collagen [1] |
| --- | --- | --- | --- |
| 17S1NNT: 82 amino acids, positions 636 to 718 of full-length human collagen XVII, SEQ ID NO.5 | no significant difference | comparable to or superior to that of a natural human collagen |  |
| B1 |  | comparable to or superior to that of a natural human collagen | significantly outperformed |
